Test results reported in US9102752B2, “Peptide vaccine for prevention and immunotherapy of dementia of the Alzheimer's type” (United Biomedical, Inc., priority 2013, dated 2015).

Key:
[1] = tested on: anti-Aβ antibodies in sera from vaccinated baboons; test: Epitope mapping, 10-mer peptide-based ELISA with sera from vaccinated baboons; conditions: peptide as plate coating
Protocol: Fine specificity analyses of anti-Aβ antibodies in immunized hosts or vaccines were determined by epitope mapping.
These nested peptides were used individually to coat microtiter wells as solid-phase immunoadsorbents for ELISA tests. The positive control ELISA plate was coated with Aβ1-28. They were tested for antibody binding with the sera from the four immunized baboons, from weeks 0, 10, 84 and 111. Baboon sera were serially diluted and assayed on plates coated with a 10-mer peptide at 5 ug/mL.

[2] = tested on: baboon anti-Aβ antibody; test: Epitope mapping by competitive inhibition ELISA with hyperimmune baboon sera; assay type: binding, baboons
[3] = peptide concentration 0.5 μg/mL

28 (HHQKLVFFAE) [Peptide 28]
ELISA Titer titers (Log10) ([1]; 0 weeks post immunization): 0.19 Log10
ELISA Titer titers (Log10) ([1]; 10 weeks post immunization): 0.22 Log10
ELISA Titer titers (Log10) ([1]; 84 weeks post immunization): 0.13 Log10
ELISA Titer titers (Log10) ([1]; 111 weeks post immunization): 0.12 Log10

29 (HQKLVFFAED) [Peptide 29]
ELISA Titer titers (Log10) ([1]; 0 weeks post immunization): 0.18 Log10
ELISA Titer titers (Log10) ([1]; 10 weeks post immunization): 0.21 Log10
ELISA Titer titers (Log10) ([1]; 84 weeks post immunization): 0.13 Log10
ELISA Titer titers (Log10) ([1]; 111 weeks post immunization): 0.13 Log10

SEQ ID NO: 16: MDAEF RHDSG (MDAEFRHDSG; PEPTIDE (1)..(10) Abeta -1-9 or APP 770(M671-G680); listed as Homo sapiens) [Aβ-1-9]
Percent (%) Inhibition ELISA after peptide pre-absorption of sera [2, 3]: 9%
Percent (%) Inhibition ELISA after peptide pre-absorption of sera ([2]; peptide concentration 1 μg/mL): 4%
Percent (%) Inhibition ELISA after peptide pre-absorption of sera ([2]; peptide concentration 2 μg/mL): 8%
Percent (%) Inhibition ELISA after peptide pre-absorption of sera ([2]; peptide concentration 8 μg/mL): 17%
Percent (%) Inhibition ELISA after peptide pre-absorption of sera ([2]; peptide concentration 32 μg/mL): 39%

SEQ ID NO: 17: AEFRH DSGYE (AEFRHDSGYE; PEPTIDE (1)..(10) Abeta 2-11 or APP 770(A673-E682); listed as Homo sapiens) [Aβ2-11]
Percent (%) Inhibition ELISA after peptide pre-absorption of sera [2, 3]: 0%
Percent (%) Inhibition ELISA after peptide pre-absorption of sera ([2]; peptide concentration 1 μg/mL): 0%
Percent (%) Inhibition ELISA after peptide pre-absorption of sera ([2]; peptide concentration 2 μg/mL): 0%
Percent (%) Inhibition ELISA after peptide pre-absorption of sera ([2]; peptide concentration 8 μg/mL): 6%
Percent (%) Inhibition ELISA after peptide pre-absorption of sera ([2]; peptide concentration 32 μg/mL): 19%

SEQ ID NO: 18: EFRHD SGYEV (EFRHDSGYEV; PEPTIDE (1)..(10) Abeta 3-12 or APP 770(E674-V683); listed as Homo sapiens) [Aβ3-12]
Percent (%) Inhibition ELISA after peptide pre-absorption of sera [2, 3]: 1%
Percent (%) Inhibition ELISA after peptide pre-absorption of sera ([2]; peptide concentration 1 μg/mL): 0%
Percent (%) Inhibition ELISA after peptide pre-absorption of sera ([2]; peptide concentration 2 μg/mL): 0%
Percent (%) Inhibition ELISA after peptide pre-absorption of sera ([2]; peptide concentration 8 μg/mL): 0%
Percent (%) Inhibition ELISA after peptide pre-absorption of sera ([2]; peptide concentration 32 μg/mL): 3%
